According to the Deep4Chem optical property database:
Each block holds one molecule with its values, some of them ahead of it.

Assay: solvent given as SMILES

- absorption maximum (in C1CCOC1): 366 nm
Structure (SMILES): C(=C1c2ccccc2-c2ccccc21)c1ccc(-c2ccc(C=C3c4ccccc4-c4ccccc43)cc2)cc1

- absorption maximum (in C1COCCO1): 334 nm
- absorption maximum (in CC#N): 332 nm
- absorption maximum (in CO): 331 nm
- absorption maximum (in ClCCl): 330 nm
Structure (SMILES): COC(=O)c1nc2c(N(C)C)nc(N)nc2n1Cc1ccccc1

Structure (SMILES): O=C1/C(=C\c2ccc3oc4ccccc4c3c2)S(=O)(=O)c2ccccc21
- absorption maximum (in C1CCOC1): 368 nm
- absorption maximum (in C1COCCO1): 369 nm
- absorption maximum (in CC#N): 365 nm
- absorption maximum (in CC(C)=O): 365 nm
- absorption maximum (in CCOC(C)=O): 366 nm
- absorption maximum (in CN(C)C=O): 367 nm
- absorption maximum (in CO): 367 nm
- absorption maximum (in CS(C)=O): 369 nm
- absorption maximum (in Cc1ccccc1): 373 nm
- absorption maximum (in ClC(Cl)Cl): 378 nm
- absorption maximum (in ClCCl): 372 nm

- absorption maximum (in ClCCl): 414 nm
Structure (SMILES): COc1ccc(N(c2ccc(OC)cc2)c2ccc3c(c2)C2(c4cc(N(c5ccc(OC)cc5)c5ccc(OC)cc5)ccc4C=C3)c3ccccc3-c3ccccc32)cc1

Structure (SMILES): CCCCCCC(CCCCCC)N1C(=O)c2cccc3c(-c4ccc(OC)c5ccccc45)ccc(c23)C1=O
- absorption maximum (in CCCCCC): 322.6 nm
- absorption maximum (in CCCCCCCCCCCCCC): 322.6 nm
- absorption maximum (in CCCCCCCCCCCO): 323.8 nm
- absorption maximum (in CCCCO): 323.6 nm
- absorption maximum (in CN(C)C=O): 323.8 nm
- absorption maximum (in Cc1ccccc1): 324 nm
- absorption maximum (in ClC(Cl)Cl): 325 nm

- absorption maximum (in C1CCCCC1): 435 nm
- absorption maximum (in ClC(Cl)Cl): 438.5 nm
- absorption maximum (in ClCCl): 438 nm
Structure (SMILES): c1cc2cccc3c4cccc5cccc(c(c1)c23)c54

Structure (SMILES): CCCCCCc1ccc(/C=C/c2ccc(CCCCCC)s2)s1
- absorption maximum (in Cc1ccccc1): 356 nm

- absorption maximum (in C1CCCCC1): 593 nm
- absorption maximum (in CCOC(C)=O): 596 nm
Structure (SMILES): CC1=[N+]2C(=C(c3ccc(N(c4ccccc4)c4ccccc4)cc3)c3ccc(C)n3[B-]2(F)F)C=C1c1cc2n(c1)[B-](F)(F)[N+]1=CC=CC1=C2c1c(C)cc(C)cc1C

- absorption maximum (in ClCCl): 580 nm
Structure (SMILES): Cc1cc(C)c(C2=C3C=C(/C=C/C(=O)OC(C)(C)C)C=[N+]3[B-](F)(F)n3cc(/C=C/C(=O)OC(C)(C)C)cc32)c(C)c1

Structure (SMILES): CCc1ccc(/C=C/c2ccc(-c3nnc(-c4ccc(-c5cc6ccccc6s5)cc4)o3)cc2)cc1
- absorption maximum (in CC#N): 342 nm
- absorption maximum (in CC(C)=O): 347 nm
- absorption maximum (in CCCCCCCC): 341 nm
- absorption maximum (in CCCCCCCCCCO): 357 nm
- absorption maximum (in CCCCCCCCO): 357 nm
- absorption maximum (in CCCCCO): 354 nm
- absorption maximum (in CCCO): 347 nm
- absorption maximum (in CN(C)C=O): 355 nm
- absorption maximum (in CO): 326 nm
- absorption maximum (in CS(C)=O): 350 nm

- absorption maximum (in ClCCl): 592 nm
Structure (SMILES): C1=CC2C=c3c(cc4cccc5cc6ccccc6c3c45)C3=c4ccccc4=CC(=C1)C32 (configuration not stated)

- absorption maximum (in ClCCl): 576 nm
Structure (SMILES): Cc1cc(C)c(C2=C3C=C(/C=C/C(=O)OCc4ccccc4)C=[N+]3[B-](F)(F)n3cc(/C=C/C(=O)OCc4ccccc4)cc32)c(C)c1

- absorption maximum (in ClCCl): 500 nm
Structure (SMILES): CCCCCCn1c(=O)c2c3[nH]c4ccccc4sc3c3c(=O)n(CCCCCC)c(=O)c3c2c1=O

- absorption maximum (in C1CCCCC1): 372 nm
- absorption maximum (in CC#N): 357 nm
- absorption maximum (in CO): 356 nm
- absorption maximum (in ClC(Cl)Cl): 369 nm
Structure (SMILES): CN(C)c1ccc(C#Cc2ccc(-c3nc(C#N)c(C#N)n3C)cc2)cc1

Structure (SMILES): CCCCCCCCCCCCOc1cc(/C=C/c2ccc3c(c2)C(CC)(CC)c2cc(N4c5ccccc5Sc5ccccc54)ccc2-3)c(OCCCCCCCCCCCC)cc1/C=C/c1ccc2c(c1)C(CC)(CC)c1cc(N3c4ccccc4Sc4ccccc43)ccc1-2
- absorption maximum (in C1CCOC1): 442.41 nm
- absorption maximum (in CC#N): 436.72 nm
- absorption maximum (in CCCCCC): 436.38 nm
- absorption maximum (in Cc1ccccc1): 442.93 nm
- absorption maximum (in ClCCl): 420 nm

- absorption maximum (in C1COCCO1): 526 nm
- absorption maximum (in CS(C)=O): 553 nm
Structure (SMILES): O=C1/C(=C2\Sc3ccc(S(=O)(=O)Cl)cc3C2=O)Sc2ccc(S(=O)(=O)Cl)cc21

Structure (SMILES): COc1ccc(N(c2ccc(/C=C(\C)c3ccccc3)cc2)c2ccc(OC)cc2)cc1
- absorption maximum (in Cc1ccccc1): 347 nm

Structure (SMILES): CCCCCCCCCCCCC1(CCCCCCCCCCCC)c2cc(-c3ccc(C=C4C(=O)c5ccccc5C4=O)cc3)ccc2-c2ccc(-c3ccc(C=C4C(=O)c5ccccc5C4=O)cc3)cc21
- absorption maximum (in C1CCOC1): 433 nm
- absorption maximum (in CC(C)=O): 429 nm
- absorption maximum (in CCCCCC): 419 nm
- absorption maximum (in CS(C)=O): 437 nm
- absorption maximum (in Cc1ccccc1): 429 nm
- absorption maximum (in ClC(Cl)Cl): 438 nm

- absorption maximum (in ClC(Cl)Cl): 348 nm
Structure (SMILES): CC(C)(C)c1ccc2oc3nc4oc5ccc(-n6c7ccccc7c7cc(-n8c9ccccc9c9ccccc98)ccc76)cc5c4cc3c2c1

- absorption maximum (in ClCCl): 410 nm
Structure (SMILES): CCN(CC)c1ccc2cc(-c3nc4c5cccc6ccc7cccc(c7c65)c4n3-c3ccc(C(C)(C)C)cc3)c(=O)oc2c1

- absorption maximum (in ClC(Cl)Cl): 673 nm
Structure (SMILES): CCOC(=O)/C=C/C1=C(c2ccc(C)cc2)C2=Nc3c(-c4ccc(C)cc4)c(-c4ccc(OC)cc4)c(-c4ccc(C)cc4)n3[B-](F)(F)[N+]2=C1c1ccc(C)cc1

- absorption maximum (in ClC(Cl)Cl): 679 nm
- absorption maximum (in ClCCl): 679 nm
Structure (SMILES): COc1ccc(C2=[N+]3C(=Nc4c(-c5ccccc5)c(Br)c(-c5ccc(OC)cc5)n4[B-]3(F)F)C(c3ccccc3)=C2Br)cc1

Structure (SMILES): CCCCCCCCn1nnc(-c2ccc(C#Cc3ccc(C#Cc4ccc(-c5nnn(CCCCCCCC)n5)cc4)c4nc5c6ccccc6c6ccccc6c5nc34)cc2)n1
- absorption maximum (in C1CCOC1): 428 nm
- absorption maximum (in Cc1ccccc1): 428 nm
- absorption maximum (in ClCCl): 428 nm

- absorption maximum (in ClCCl): 656 nm
Structure (SMILES): COc1c2ccccc2c(OC)c2c(C#Cc3ccccc3)c3cc4sccc4cc3c(C#Cc3ccccc3)c12

- absorption maximum (in C1COCCO1): 350 nm
- absorption maximum (in CC#N): 365 nm
- absorption maximum (in CCO): 367 nm
- absorption maximum (in CCOC(C)=O): 366 nm
- absorption maximum (in ClC(Cl)Cl): 376 nm
- absorption maximum (in c1ccccc1): 372 nm
Structure (SMILES): CCOC(=O)CSc1nc(-c2ccccc2)c(C)c(C#N)c1C#N

- absorption maximum (in C1CCOC1): 346 nm
Structure (SMILES): COc1ccc(-c2cc3oc(=O)cc(C)c3cc2-c2ccc(OC)c(OC)c2)cc1OC

- absorption maximum (in ClC(Cl)Cl): 372 nm
Structure (SMILES): COc1cc(OC)c2cc(-c3ccc(-c4cc5c(OC)cc(OC)cc5oc4=O)cc3)c(=O)oc2c1

Structure (SMILES): CN(C)c1[se]c(-c2ccc(Cl)cc2)nc1-c1ccccc1
- absorption maximum (in ClC(Cl)Cl): 360 nm

- absorption maximum (in ClCCl): 511 nm
Structure (SMILES): COc1ccc(C2=C(c3ccc(OC)cc3)c3cccc4c5c(cc(c34)O2)=NC(C#N)C(C#N)N=5)cc1 (configuration not stated)

- absorption maximum (in ClCCl): 340 nm
Structure (SMILES): CCCCn1c(-c2ccc(-c3nnc(-c4ccc5ccccc5c4)o3)cc2)nc(-c2ccccc2)c1-c1ccccc1

Structure (SMILES): COC(=O)C(Cc1ccc2oc(-c3ccc(-n4c5ccccc5c5ccccc54)cc3)nc2c1)NC(=O)OC(C)(C)C (configuration not stated)
- absorption maximum (in C1CCCCC1): 340 nm
- absorption maximum (in C1CCOC1): 341.8 nm
- absorption maximum (in C1COCCO1): 341.4 nm
- absorption maximum (in CC1CCCO1): 341.41 nm
- absorption maximum (in CC#N): 340 nm
- absorption maximum (in CC(C)(C)O): 341.8 nm
- absorption maximum (in CC(C)=O): 340.7 nm
- absorption maximum (in CC(C)CC(C)(C)C): 339.9 nm
- absorption maximum (in CC(C)O): 340.48 nm
- absorption maximum (in CC(O)CO): 342.3 nm
- absorption maximum (in CCCCCCCO): 342.5 nm
- absorption maximum (in CCCCCCO): 342.59 nm
- absorption maximum (in CCCCCO): 340.8 nm
- absorption maximum (in CCCCO): 341.8 nm
- absorption maximum (in CCO): 340.48 nm
- absorption maximum (in CCOC(C)=O): 340.02 nm
- absorption maximum (in CCOCC): 339.6 nm
- absorption maximum (in CN(C)C=O): 342.11 nm
- absorption maximum (in CO): 339.7 nm
- absorption maximum (in CS(C)=O): 343.6 nm
- absorption maximum (in Cc1ccccc1): 342.61 nm
- absorption maximum (in OCCO): 343.21 nm

- absorption maximum (in ClC(Cl)Cl): 506 nm
Structure (SMILES): N#CC(C#N)=Cc1ccc(-c2ccc(N(c3ccccc3)c3ccccc3)cc2)s1

Structure (SMILES): CC(C)(C)c1ccc2c(c1)c1cc(C(C)(C)C)ccc1n2-c1ccc(C#Cc2ccc(C=C(C#N)C#N)cc2)cc1
- absorption maximum (in CC#N): 346 nm
- absorption maximum (in CCCCC): 345 nm
- absorption maximum (in Cc1ccccc1): 348 nm
- absorption maximum (in ClCCl): 410 nm

- absorption maximum (in ClC(Cl)Cl): 393 nm
Structure (SMILES): c1ccc2c(c1)ccc1ccc3ccc4ccccc4c3c12

- absorption maximum (in C1CCOC1): 384 nm
Structure (SMILES): C1=C(c2ccccc2)C=C(c2ccccc2)/C1=C/c1ccc2c(c1)Cc1ccccc1-2

Structure (SMILES): N#Cc1nc2c3ccc(-c4ccc(-n5c6ccccc6c6ccccc65)cc4)cc3c3cc(-c4ccc(-n5c6ccccc6c6ccccc65)cc4)ccc3c2nc1C#N
- absorption maximum (in Cc1ccccc1): 418 nm

- absorption maximum (in CC#N): 428.3 nm
- absorption maximum (in CCO): 426.3 nm
- absorption maximum (in CO): 432.1 nm
- absorption maximum (in CS(C)=O): 434.3 nm
Structure (SMILES): Cn1c2ccccc2[c+](-c2ccccc2)c2cc([N+](=O)[O-])ccc21

Structure (SMILES): CC(C)[Si](C#Cc1ccc(-c2c3cccc4c5cccc6c(-c7ccc(C#C[Si](C(C)C)(C(C)C)C(C)C)cc7)c7cccc8c9cccc2c9c(c34)c(c65)c78)cc1)(C(C)C)C(C)C
- absorption maximum (in Cc1ccccc1): 727 nm

- absorption maximum (in C1CCOC1): 333 nm
Structure (SMILES): C1=Cc2ccccc2C(=Cc2ccc(C=C3c4ccccc4C=Cc4ccccc43)cc2)c2ccccc21

- absorption maximum (in c1ccccc1): 404 nm
Structure (SMILES): COc1ccc2ccc3oc(=O)c(-c4ccccc4)nc3c2c1

- absorption maximum (in ClCCl): 472 nm
Structure (SMILES): c1cc2c3c(c1)ccc1[n+]3[B-]3(Oc4cccc5ccc6[n+](c45)[B-](O2)(O3)n2c-6cc3c4ccccc4c4ccccc4c32)n2c-1cc1c3ccccc3c3ccccc3c12

- absorption maximum (in ClC(Cl)Cl): 412 nm
Structure (SMILES): CCN(CC)c1ccc2cc(-c3ccc(-c4c5ccccc5c(-c5ccc(-c6cc7ccc(N(CC)CC)cc7oc6=O)cc5)c5ccccc45)cc3)c(=O)oc2c1

- absorption maximum (in ClCCl): 473 nm
Structure (SMILES): CCCc1ccc(C#Cc2cc(C#Cc3ccc(CCC)cc3)c3ccc4c(C#Cc5ccc(N(C)C)cc5)cc(C#Cc5ccc(CCC)cc5)c5ccc2c3c54)cc1

Structure (SMILES): c1ccc(-c2nc(-c3ccccc3)nc(-c3ccc(-n4c5ccccc5c5cc(-c6ccc7oc8ccccc8c7c6)ccc54)cc3)n2)cc1
- absorption maximum (in Cc1ccccc1): 370 nm

- absorption maximum (in CCO): 379.08 nm
Structure (SMILES): Cc1cc2cc3ccccc3cc2cn1

Structure (SMILES): O=S(=O)(c1cccc(-n2c3ccccc3c3ccccc32)c1)c1cccc(-n2c3ccccc3c3ccccc32)c1
- absorption maximum (in C1CCOC1): 323 nm
- absorption maximum (in Cc1ccccc1): 338 nm
- absorption maximum (in ClC(Cl)Cl): 338 nm
